# From PMC10692721, “Drug discovery for heart failure targeting myosin-binding protein C” (The Journal of Biological Chemistry, 2023)
# Like-named read-outs stand apart in the source and are kept apart here.
# Tests used:
# [1] = test system: FMAL-actin/TMR-fC1-C2 interaction; test: FLT-FRET concentration-response assay, FMAL-actin plus TMR-fC1-C2; type: binding
# Procedure: (§1) Compounds identified as initial hits were further examined to determine the concentration–response curves for seven conditions ([1]): FMAL-actin alone identified actin-binding compounds that alter the FLT of FMAL-actin ([2]).
# (§2) Fluorescence lifetime (FLT) measurements were acquired using a high-throughput FLT plate reader (Fluorescence Innovations, Inc) ([14], [27]), provided by Photonic Pharma LLC. […] The observed waveforms were analyzed as described previously ([15], [28]).
# (§3) The primary hits were dissolved in DMSO to make a 10 mM stock solution, which was serially diluted in 96-well mother plates. Hits were screened at eight concentrations (0.5–100 μM). […] Compounds (1 μl) were transferred from the mother plates into 384-well plates using a Mosquito HV liquid handler (TTP Labtech Ltd, Hertfordshire, UK). The same procedure of dispensing as for the pilot screening was applied in the concentration-response assays. Concentration dependence of the FLT-FRET (E/EDMSO) or FLT-TMR (Δτ) change data was fit to a Hill equation only under certain conditions to help guide the eye (Fig. 4).
# [2] = test system: PKA-phosphorylated TMR-cC0-C2 (cC0-C2#P); test: FLT-TMR concentration-response assay, PKA-phosphorylated cC0-C2; type: binding, human; details: for cC0-C2#P FLT change (% change from DMSO, FLT of TMR-MyBP-C): 60 μM compound; for effect on FLT of PKA-phosphorylated TMR-cC0-C2 (in words): concentration-response, no actin
# In short: (§4)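 Hits tested at eight concentrations (0.5–100 μM) and read on a high-throughput fluorescence lifetime plate reader. Hill fits applied only under certain conditions.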
# [3] = test system: FMAL-actin/PKA-phosphorylated TMR-cC0-C2 interaction; test: FLT-FRET concentration-response assay, FMAL-actin plus PKA-phosphorylated TMR-cC0-C2; type: binding, human
# Procedure: as §1, §2, §3
# [4] = test system: FMAL-actin plus TMR-cC0-C2; test: Selleck library HTS, 473 nm excitation (FLT of FMAL-actin with TMR-cC0-C2, FLT-FRET); type: binding, human; details: for 473-nm Δτ, Repeat 1 / 473-nm Δτ, Repeat 2: initial screen, 30 μM compound; for 473-nm z-score (based on avg Δτ): robust z-score, hit threshold ±4, 30 μM compound
# In short: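 Donor fluorescence lifetime was then recorded. Waveforms were fit to a single exponential, and ΔFLT was obtained after a moving-median plate-gradient correction (half-row window), rescaled by the median DMSO lifetime.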
# [5] = test system: TMR-cC0-C2 (C0-C2 fragment of human cMyBP-C); test: FLT-TMR concentration-response assay (FLT of TMR on cC0-C2, no actin); type: binding; details: for cC0-C2/cC0-C2#P (ratio of FLT changes) / cC0-C2 FLT change (% change from DMSO, FLT of TMR-MyBP-C): 60 μM compound; for effect on FLT of TMR-cC0-C2 (in words): concentration-response, no actin; for difference in effect on TMR FLT between unphosphorylated and phosphorylated TMR-cC0-C2: from Table 3
# In short: as §4
# [6] = test system: TMR-fC1-C2 (C1-C2 of fast skeletal MyBP-C); test: FLT-TMR concentration-response assay, fC1-C2; type: binding; details: for cC0-C2/fC1-C2 (ratio of FLT changes) / fC1-C2 FLT change (% change from DMSO, FLT of TMR-MyBP-C): 60 μM compound; for difference in effect on TMR FLT between unphosphorylated TMR-cC0-C2 and TMR-fC1-C2: from Table 3; for effect on FLT of TMR-fC1-C2 (in words): concentration-response, no actin
# In short: as §4
# [7] = test system: FMAL-actin/TMR-cC0-C2 interaction; test: FLT-FRET concentration-response assay, FMAL-actin plus TMR-cC0-C2; type: binding, human; details: for specificity of FLT-FRET effect for unphosphorylated over phosphorylated cC0-C2: effect on cC0-C2 compared to phosphorylated cC0-C2 (Tables 1 and 2); for effect on FLT-FRET / binding between FMAL-actin and TMR-cC0-C2 (in words): unphosphorylated cC0-C2
# In short: as §4
# TMR-cC0-C2 = test: Selleck library HTS, 532 nm excitation (FLT of TMR-cC0-C2 in presence of FMAL-actin); type: binding, human; details: for 532-nm Δτ, Repeat 1 / 532-nm Δτ, Repeat 2: initial screen, 30 μM compound; for 532-nm z-score (based on avg Δτ): robust z-score, hit threshold ±4, 30 μM compound
effect on FLT-FRET / binding between FMAL-actin and TMR-fC1-C2 (in words) [1],effect on FLT-FRET / binding between FMAL-actin and PKA-phosphorylated TMR-cC0-C2 (in words) [3],effect on FLT-FRET / binding between FMAL-actin and TMR-cC0-C2 (in words) [7],Molecule,"cC0-C2#P FLT change (% change from DMSO, FLT of TMR-MyBP-C) [2] [%]","473-nm Δτ, Repeat 1 [4] [ns]","473-nm Δτ, Repeat 2 [4] [ns]",473-nm z-score (based on avg Δτ) [4],cC0-C2/cC0-C2#P (ratio of FLT changes) [5],"cC0-C2 FLT change (% change from DMSO, FLT of TMR-MyBP-C) [5] [%]",effect on FLT of TMR-cC0-C2 (in words) [5],difference in effect on TMR FLT between unphosphorylated and phosphorylated TMR-cC0-C2 [5] [fold],cC0-C2/fC1-C2 (ratio of FLT changes) [6],"fC1-C2 FLT change (% change from DMSO, FLT of TMR-MyBP-C) [6] [%]",difference in effect on TMR FLT between unphosphorylated TMR-cC0-C2 and TMR-fC1-C2 [6] [fold],specificity of FLT-FRET effect for unphosphorylated over phosphorylated cC0-C2 [7],"532-nm Δτ, Repeat 1 (TMR-cC0-C2) [ns]","532-nm Δτ, Repeat 2 (TMR-cC0-C2) [ns]",532-nm z-score (based on avg Δτ) (TMR-cC0-C2),effect on FLT of PKA-phosphorylated TMR-cC0-C2 (in words) [2],effect on FLT of TMR-fC1-C2 (in words) [6],other results
decreased,decreased,decreased,"COc1cc(Nc2ncc(F)c(Nc3ccc4c(n3)N(COP(=O)(O)O)C(=O)C(C)(C)O4)n2)cc(OC)c1OC [Fostamatinib (R788), Fostamatinib]",0.7,0.110,0.046,4.40,3.3,2.3,affect,3.3,5.8,0.4,5.8,5 fold,-0.027,-0.063,-2.72,–,–,–
decreased,decreased,decreased,CCC(=O)O[C@H]1[C@H](O[C@@H]2[C@@H](C)[C@H](O[C@H]3C[C@@](C)(OC)[C@@H](O)[C@H](C)O3)[C@@H](C)C(=O)O[C@H](CC)[C@@](C)(O)[C@H](O)[C@@H](C)C(=O)[C@H](C)C[C@@]2(C)O)O[C@H](C)C[C@@H]1N(C)C [Erythromycin estolate],−2.4,0.149,0.101,7.01,5.9,−14.1,affect,5.9,6.7,−2.1,6.7,–,0.002,-0.031,-0.86,decreases,decreases,effect on FLT-FRET / binding between FMAL-actin and TMR-fC1-C2 (in words) ([1]; listed as Erthromycin estolate): biphasic effect; effect on FLT-FRET / binding between FMAL-actin and PKA-phosphorylated TMR-cC0-C2 (in words) ([3]; listed as Erthromycin estolate): biphasic effect; effect on FLT of TMR-cC0-C2 (in words) ([5]; listed as Erthromycin estolate): decreases; effect on FLT-FRET / binding between FMAL-actin and TMR-cC0-C2 (in words) ([7]; listed as Erthromycin estolate): biphasic effect
affected the binding to actin,no effect,affected the binding to actin,Tocofersolan,3.2,-0.166,-0.159,-9.06,1.0,3.3,–,–,1.2,2.8,–,13–54 fold,0.072,0.065,4.23,–,–,fold effect on increased FRET (or binding) (Table 2) ([7]; comparison not given): fivefold or greater
does not have any effect,increases,does not have any effect,Clc1ccc(C(Cn2ccnc2)OCc2ccc(Sc3ccccc3)cc2)c(Cl)c1 (stereo not shown) [Fenticonazole nitrate],−6.0,-0.069,-0.104,-4.80,0.8,−4.7,slightly decreases,–,11.8,0.4,11.8,–,-0.011,-0.035,-1.35,slightly decreases,does not affect,preference for increasing the binding of phosphorylated over unphosphorylated cC0-C2 (FLT-FRET) [3]: 5 fold
